Results: patent US9851354B2, “Methods of treating fragile X syndrome and related disorders” (Alcobra Ltd., priority 2013, dated 2017)
“Also recorded” adds a separate entry of the source.

Legend:
[1] = system: Fmr1 knockout (KO) or Wild Type (WT) mice; assay: Social approach (sniffing of a juvenile, Trial 1); assay type: in vivo, mouse; settings: for social approach (sniffing bouts) / social approach, duration of sniffing: 2 months old; for social approach (sniffing bouts): Study 1; for social approach, duration of sniffing: Study 2; for duration of sniffing, Trial 1: 150 mg/kg ip 7 days
Method: Fmr1 knockout mice (KO2) mice (The Dutch-Belgium Fragile X Consortium, 1994), initially obtained from the Jackson Laboratory, and wild type (WT) littermates were generated on a C57BL/6J background and repeatedly backcrossed onto a C57BL/6J background for more than eight generations. The Fmr1 knockout mice were housed in groups of the same genotype in a temperature and humidity controlled room with a 12-h light-dark cycle (lights on from 7 am to 7 pm; testing was conducted during light phase). Room temperature and humidity were recorded continuously in the holding room while food and water were available ad libitum. Testing was conducted on healthy Fmr1 knockout mice and their wild type littermates (N=10 mice per treatment group) at 2 or 6 months of age during the behavioral experiments. Mice were housed in commercial plastic cages and experiments were conducted in line with the requirements of the UK Animals (Scientific Procedures) Act, 1986. All experiments were conducted with experimenters blind to genotype and drug treatment. Animals were allowed a minimum acclimatization period of one week prior to performing any experiment. No prophylactic or therapeutic treatment was administered during the acclimatization period.
(§1) In all cases, saline was used as a vehicle (control).
Mice are a social species that engage in easily scored social behaviors including approaching, following, sniffing, grooming, aggressive encounters, sexual interactions, parental behaviors, nesting, and sleeping in a group huddle. Social approach in mice was evaluated by sniffing duration directed to a novel mouse.
Mice were placed in a test arena/cage of the same order of magnitude in size as the adult's home cage (40×23×12 cm cage, with a Perspex lid to facilitate viewing the mice) with fresh wood chippings on the floor. A background mouse odor was created by putting in some non-experimental mice into the apparatus prior to testing. Mice were transferred to the experimental room 10-15 min prior to testing. A test subject and a juvenile were placed simultaneously into the test cage. The total duration and number of bouts of social investigation, defined as sniffing and close following (<2 cm from the tail) of the stimulus juvenile by the tested mouse, was assessed for 3 min. 30 min later, the test was repeated using the same stimulus juvenile. Data parameters collected were the total duration and total number of bouts of sniffing for the acquisition and recognition. A social memory ratio was derived, defined as trial 2/trial 1+2. Therefore, no memory (e.g. 20/(20+20)=0.5 and memory (e.g. 10/(20+10)=<0.5.
Multivariate analysis of variance was employed to assess group differences across data. Repeated measures ANOVA were performed for behavioral data. Statistically significant effects in each ANOVA were followed with post hoc comparisons, using the Newman-Keuls test (Study 1) or the Tukey test (Study 2). A p value of less than 0.05 was considered significant.

[2] = system: hippocampal slices from Fmr1 knockout or WT mice; assay: De novo hippocampal protein synthesis in vitro (SUnSET); assay type: cell-based, mouse; settings: hippocampal slices from Fmr1 KO mice, 300 μM
Method: as §1
Transverse hippocampal slices (400 μm) were obtained from 6-week-old Fmr1 knockout and WT mice. A protein synthesis assay was performed as previously described using the nonradioactive fluorescence-activated cell sorting-based assay, surface sensing of translation (SUnSET) method, which allows the monitoring and quantification of global protein synthesis in individual mammalian cells and in heterogeneous cell populations. (Hoeffer, 2011).

Akt = assay: Brain phosphorylation of Akt (western blot); assay type: in vivo, mouse
Method: as §1
The Ras-Mek-ERK and PI3K-Akt-mToR signaling pathways are involved in mediating activity dependent alterations in gene transcription underlying changes in synaptic plasticity (Klann and Dever, 2004). Phosphorylated ERK and Akt protein expression was measured by western blot analysis as previously described by Lopez Verrilli (Lopez Verrilli et al., 2009). The antibodies employed were anti-phosphospecific antibodies against Akt (1/1000) and kinase (ERK) 1/2 (1/2000) (Cell Signaling Technology, Danvers, Mass., USA). The antibody against phospho-ERK detects phosphorylation at phospho-ERK 1/2 (Thr202/Tyr204) whereas the antibody against phospho-Akt detects phosphorylation at phospho-Akt (Thr308). Total Akt and ERK 1/2 protein content and phosphorylated ERK and Akt were evaluated by blotting membranes with antiphospho-Akt (1/1000) and antiphospho-ERK antibodies (1/2000) (Cell Signaling Technology, Danvers, Mass., USA). Akt or ERK phosphorylation was normalized to protein content in the same sample and expressed as % of change with respect to basal conditions, considering basal levels as 100%. Protein loading was evaluated by stripping and re-blotting membranes with j-actin antibody (1/1000) (Sigma-Aldrich, St. Louis, Mo., USA). Phosphorylated ERK and Akt protein expression in blood lymphocytes was measured by flow cytometry. For lymphocyte biomarker determinations, a FACStar plus (Becton Dickinson) was used with the excitation laser tuned at 488 nm and green fluorescence from FITC (GST) was collected through a 515-545 nm bandpass filter. The mean FITC fluorescence Intensity was calculated in relation to the fluorescence of reference cells. The mean cellular fluorescence intensity (MFI) is directly proportional to the mean number of Ab molecules bound per cell.

[3] = Fmr1 KO mice, 6 months old, 150 mg/kg ip once daily 7 days
[4] = Fmr1 KO mice, 2 months old, 150 mg/kg ip 7 days, Study 2

## Cc1ncc(CO)c(CO)c1O.O=C1CC[C@@H](C(=O)O)N1 [metadoxine, pyridoxol L,2-pyrrolidon-5 carboxylate]
[1]; Fmr1 KO mice, 150 mg/kg ip once daily 7 days, 150 mg/kg
  social approach (sniffing bouts): increased social approach in Fmr1 knockout mice; also recorded: improved social interaction
[1]; Fmr1 KO mice, 150 mg/kg ip once daily 7 days
  social approach, duration of sniffing: reversal was complete
[1]; Fmr1 KO mice, 150 mg/kg oral once daily 7 days
  social approach, duration of sniffing: reversal was complete
[1]; Fmr1 KO mice, 300 mg/kg oral once daily 7 days
  social approach, duration of sniffing: reversal was complete
[1]; [3]
  social approach, duration of sniffing (Trial 1): this effect was partial
  social approach, number of sniffing bouts (Trial 1): did not differ from metadoxine-treated WT mice
[1]; KO-M: Fmr1 KO mice, 6 months old
  duration of sniffing, Trial 1: 28.4
[1]; WT mice, 150 mg/kg ip once daily 7 days
  social approach (sniffing bouts): no effect on WT mice
[1]; WT mice, any dose (150 mg/kg ip, 150 and 300 mg/kg oral)
  social approach, duration of sniffing: without effect on WT mice
[1]; WT mice, 6 months old, 150 mg/kg ip once daily 7 days
  social approach, sniffing bouts and duration (Trial 1): without effect on WT mice
[1]; WT-M: WT mice, 6 months old
  duration of sniffing, Trial 1: 38.5
[2]
  basal de novo protein synthesis: reduced protein synthesis rates in Fmr1 knockout mouse hippocampi. This effect was partial
Akt; [4]
  pAkt levels in hippocampus: complete reversal of activation of Akt
  pAkt levels in pre-frontal cortex: complete reversal of activation of Akt
  pAkt levels in striatum: complete reversal of activation of Akt
Akt; [3]
  whole brain levels of pAkt: reversed this increase in brain pAkt
Akt; WT mice, 2 months old, 150 mg/kg ip 7 days, Study 2
  pAkt levels in hippocampus, pre-frontal cortex and striatum: without effect on WT mice
Akt; WT mice, 2 months old, 150 mg/kg ip once daily 7 days, Study 1
  whole brain phosphorylated Akt: no effect on WT mice
Akt; any mice (KO or WT), 2 months old, 150 mg/kg ip once daily 7 days, Study 1
  whole brain total Akt levels: no effect
